For this data set the following is noted: free acid ion-paired with arginine in Arlatone G / ginger oil / water cubic phase; overlain with large excess of water; two days. The source says:
The antiosteolytic drug Alendronate (as the free acid) was incorporated into a cubic phase based on the ethoxylated, hydrogenated castor oil surfactant Arlatone G (from Uniquema).

As for `NCCCC(O)(P(=O)(O)O)P(=O)(O)O` [alendronate, Alendronate], the “amount of alendronate which leaked out of the cubic phase into the water” value is reported as “undetectable”.

Values taken from patent publication US20040156816A1, “Lipid-drug complexes in reversed liquid and liquid crystalline phases” (priority 2002, published 2004).
